According to paper PMC11742250, “Study on the absorption characteristics of euscaphic acid and tiliroside in fruits of Rosa laxa Retz” (PeerJ, 2025):

How the values were obtained:
Type in all cases: in vitro ADME, human
in vitro = settings: human
Description: (§1) A precise amount of FRLE reserve solution is diluted to concentrations of 50, 100, and 150 μg/mL, representing the low, medium, and high concentrations of FRLE. Additionally, solutions are prepared containing 0.100 μmoL/mL Verapamil (Ver), 0.099 μmoL/mL Cyclosporine A (CsA), and 0.025 μmoL/mL EGTA at low, medium, and high concentrations for bidirectional transport.
(§2) Caco-2 cells are seeded at a density of 2.5 × 10^5 cells/mL, with 0.5 mL inoculated into each well of a Transwell® 12-well plate. After continuous culturing for 18 days, the cell model is established. Bidirectional transport experiments include AP→BL ([…], absorption transport) and BL→AP ([…], secretion transport).
(§3) Taking absorption transport as an example: 0.5 mL of drug-containing Hank’s Balanced Salt Solution (HBSS) solution is added to the apical (AP) side (supply side), while 1.5 mL of blank solution is added to the basolateral (BL) side (receiving side). At time points 15, 30, 60, 90, 120, 150, and 180 min, 200 µL is drawn from the BL side and simultaneously supplemented with 200 µL of HBSS buffer. The samples are then evaporated in a water bath, re-dissolved in methanol, and centrifuged at 12,000 rpm for 10 min. The supernatant is taken and assayed under the conditions described in “Establishment of the determination method for euscaphic acid and tiliroside”. The effects of different times, concentrations, inhibitors, chelating agents, and pH values on the absorption characteristics of euscaphic acid and tiliroside in FRLE are investigated. The secretion transport procedure is identical to the absorption transport ([Artursson & Karlsson, 1991]).
(§4) The side with the added blank solution is considered the receiving side, and the amount of drug in the receiving side is regarded as its absorption amount (Qr). In the A→B transport test, the amount of drug absorbed by the B-side chamber at any time point is denoted as (QrBi). In the B→A transport test, the amount of drug absorbed by the A-side chamber at any time point is (QrAi). The specific calculations are provided in the following formulas:
(§5) A-B transport: QrBi = 0.2 × (Cr1 + Cr2 + Λ + Cr(i-1)) + 1.5 × Cri
(§6) B-A transport: Qrdi = 0.2 × (Cr1 + Cr2 + Λ + Cr(i-1)) + 0.5 × Cdi
(§7) In the formula, 1.5 represents the volume of the test solution added to the B-side chamber (mL), 0.5 represents the volume of the test solution added to the A-side chamber (mL), and 0.2 is the volume of each sample taken (mL). Cri is the actual concentration in the receiving chamber at the i-th time point (μg/mL). The apparent permeability coefficient Papp (cm/s) is calculated using the following formula ([Lu et al., 2020]):
(§8) Papp=dQ/dt×1/A×C0 dQ/dt represents the amount of drug transported per unit of time (μg/s); A is the surface area of the 12-well Transwell® membrane (1.12 cm^2), and C0 is the initial concentration of the drug in the donor side ([…]) ([Qu et al., 2021]).
(§9) Exhaust ratio (RB-A/A-B)) is calculated using the following formula: RB−A/A−B=Papp(B−A)/Papp(A−B)

P-gp = experiment: in vitro; settings: human, Caco-2, RB→A/A→B
Description: as §1, §2, §3, §4, §5, §6, §7, §8, §9

Caco-2 cells = experiment: in vitro
Description: as §1, §2, §3, §4, §5, §6, §7, §8, §9

Work on `C[C@@H]1CC[C@]2(C(=O)O)CC[C@]3(C)C(=CC[C@@H]4[C@@]5(C)C[C@@H](O)[C@@H](O)C(C)(C)[C@@H]5CC[C@]43C)[C@@H]2[C@]1(C)O` [Euscaphic acid] yielded a Papp at 180 min (in vitro; Caco-2) of 0.754 to 26.9 ×10⁻⁶ cm/s, an efflux ratio at 180 min, 50 μg/mL (in vitro; Caco-2, RB→A/A→B) of 0.88 ± 0.01 and an efflux ratio at 180 min, 100 μg/mL (in vitro; Caco-2, RB→A/A→B) of 0.86 ± 0.01. The efflux ratio at 180 min, 150 μg/mL (in vitro; Caco-2, RB→A/A→B) was 1.38 ± 0.21, the efflux ratio at 180 min (in vitro; Caco-2, efflux ratio (RB→A/A→B)) was under 1.5 and the efflux ratio at 180 min, 50 μg/mL (in vitro; Caco-2, pH 5, RB→A/A→B) was 1.16 ± 0.08. The efflux ratio at 180 min, 150 μg/mL (in vitro; Caco-2, pH 5, RB→A/A→B) was 0.97 ± 0.06, the efflux ratio at 180 min, 50 μg/mL (in vitro; Caco-2, pH 6, RB→A/A→B) was 0.95 ± 0.05 and the efflux ratio at 180 min, 100 μg/mL (in vitro; Caco-2, pH 6, RB→A/A→B) was 1.19 ± 0.02. The efflux ratio at 180 min, 150 μg/mL (in vitro; Caco-2, pH 6, RB→A/A→B) was 1.03 ± 0.09, the efflux ratio at 180 min (in vitro; Caco-2, pH 6, RB→A/A→B value) was about 1 and the efflux ratio at 180 min, 50 μg/mL (in vitro; Caco-2, pH 8, RB→A/A→B) was 1.12 ± 0.03. It also gave an efflux ratio at 180 min, 150 μg/mL (in vitro; Caco-2, pH 8, RB→A/A→B) of 0.91 ± 0.05, an efflux ratio at 180 min, 50 μg/mL (in vitro; Caco-2, pH 9, RB→A/A→B) of 1.08 ± 0.03 and an efflux ratio at 180 min, 50 μg/mL (P-gp) of 0.72 ± 0.01. The efflux ratio at 180 min, 100 μg/mL (P-gp) was 0.78 ± 0.06, the efflux ratio at 180 min, 150 μg/mL (P-gp) was 1.58 ± 0.01 and the P-gp substrate status (Caco-2 cells; Caco-2) was “substrates of P-gp”. The “absorption category from Papp” value (Caco-2 cells; Caco-2) was “good absorption”, the transport mechanism (Caco-2 cells; Caco-2) was “passive diffusion” and the “transport of euscaphic acid over time (Fig. 5M-O)” value (Caco-2 cells; human, Caco-2, 15 min, 50 μg/mL, pH 9) was 0.08. The “absorption amount (Qr)” value (Caco-2 cells; human, Caco-2, 120 min, 50 μg/mL) was 4.56, the “transport of euscaphic acid over time (Fig. 5M-O)” value (Caco-2 cells; human, Caco-2, 150 min, 50 µg/mL, pH 9) was 0.45 and the Papp (Caco-2 cells; human, Caco-2, 180 min) was “greater than 10^−6”. The “RB→A/A→B ratios, range over all conditions” value (Caco-2 cells; human, Caco-2, 180 min) was 0.72-1.58, the RB→A/A→B (Caco-2 cells; human, Caco-2, 180 min, 100 μg/mL, pH 5) was 1.16 ± 0.03 and the RB→A/A→B (Caco-2 cells; human, Caco-2, 180 min, 100 μg/mL, pH 8) was 0.95 ± 0.02. For the same compound, the RB→A/A→B (Caco-2 cells; human, Caco-2, 180 min, 100 μg/mL, pH 9) was 1.16 ± 0.04 and the RB→A/A→B (Caco-2 cells; human, Caco-2, 180 min, 150 μg/mL, pH 9) was 1.14 ± 0.01.
